The results in this text go back to patent US11142525B2 (Pfizer Inc., priority 2018, dated 2021).

For assay [1], the target named is human full-length recombinant HPK1 (Homo sapiens (Human), UniProt Q92918). The assay is described as follows: HPK1 biochemical enzyme assay, microfluidic mobility shift assay (MSA). As to conditions: HPK1 mobility shift assay; read-out: HPK1 Enzyme Assay_Ki.
For assay [2], the system named is phospho-SLP-76 (Ser376) in Jurkat cells. Briefly: Phospho-SLP-76 (Ser376) Homogeneous Time Resolved Fluorescence (HTRF) assay in Jurkat cells. As to conditions: Homo sapiens, Phospho-SLP-76 (Ser376) HTRF, anti-CD3 stimulation, read-out: SLP76 Assay_IC50. The format is cell-based. Summed up:
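Phospho-SLP-76 in lysates was read by sandwich HTRF and IC50 derived by four-parameter nonlinear regression. Before lysis, cells had received compound for 30 min (11-point, 3-fold series from 10 μM, 0.1% DMSO), followed by anti-CD3 F(ab)2 complex (200 μg/mL, 15 min, 37 °C).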

Sequence of human full-length recombinant HPK1 (Q92918 whole entry): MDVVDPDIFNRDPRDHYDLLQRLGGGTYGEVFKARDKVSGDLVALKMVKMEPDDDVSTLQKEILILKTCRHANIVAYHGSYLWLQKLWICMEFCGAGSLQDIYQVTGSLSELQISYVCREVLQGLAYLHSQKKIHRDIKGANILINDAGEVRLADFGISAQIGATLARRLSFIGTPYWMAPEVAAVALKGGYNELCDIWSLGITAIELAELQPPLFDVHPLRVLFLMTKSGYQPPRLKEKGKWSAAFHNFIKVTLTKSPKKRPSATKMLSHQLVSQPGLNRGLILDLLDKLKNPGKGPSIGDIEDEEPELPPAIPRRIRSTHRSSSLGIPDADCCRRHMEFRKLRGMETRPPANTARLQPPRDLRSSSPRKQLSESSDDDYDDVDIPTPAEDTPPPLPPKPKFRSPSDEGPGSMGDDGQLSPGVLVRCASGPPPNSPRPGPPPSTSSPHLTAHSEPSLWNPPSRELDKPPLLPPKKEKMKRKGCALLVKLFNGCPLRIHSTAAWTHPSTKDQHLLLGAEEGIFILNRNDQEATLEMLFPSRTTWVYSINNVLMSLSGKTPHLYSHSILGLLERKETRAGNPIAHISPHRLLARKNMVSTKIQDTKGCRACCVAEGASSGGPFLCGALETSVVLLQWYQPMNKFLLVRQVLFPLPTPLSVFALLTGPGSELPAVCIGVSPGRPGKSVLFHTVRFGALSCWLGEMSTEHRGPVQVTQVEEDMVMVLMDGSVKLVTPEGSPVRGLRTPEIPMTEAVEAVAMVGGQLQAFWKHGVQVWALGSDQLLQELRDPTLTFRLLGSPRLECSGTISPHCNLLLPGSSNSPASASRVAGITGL

Consider `CCN(c1cc2c(c(CNC)n1)CN(c1cccc(-c3nncn3C)n1)C2=O)C(C)C` [Example 108, 6-[ethyl(propan-2-yl)amino]-4-[(methylamino)methyl]-2-[6-(4-methyl-4H-1,2,4-triazol-3-yl)pyridin-2-yl]-2,3-dihydro-1H-pyrrolo[3,4-c]pyridin-1-one], for which the Ki in assay [1] amounted to 3.7 nM. Besides, the IC50 in assay [2] was found to be 583 nM.

Regarding `CNCc1nc(N2CCCC2(C)C)cc2c1CN(c1cccc(-c3nncn3C(C)C)n1)C2=O` [Example 109, 6-(2,2-dimethylpyrrolidin-1-yl)-4-[(methylamino)methyl]-2-{6-[4-(propan-2-yl)-4H-1,2,4-triazol-3-yl]pyridin-2-yl}-2,3-dihydro-1H-pyrrolo[3,4-c]pyridin-1-one], the Ki in assay [1] was 0.06 nM. Besides, the IC50 in assay [2] was 12 nM.

Consider `CCn1cnnc1-c1cccc(N2Cc3c(cc(N4[C@H](C)CC[C@H]4C)nc3CN)C2=O)n1` [Example 110, 4-(aminomethyl)-6-[(2R,5R)-2,5-dimethylpyrrolidin-1-yl]-2-[6-(4-ethyl-4H-1,2,4-triazol-3-yl)pyridin-2-yl]-2,3-dihydro-1H-pyrrolo[3,4-c]pyridin-1-one], for which the Ki in assay [1] amounted to 0.32 nM. Moreover, the IC50 in assay [2] was 86 nM.

For `CCn1c(C)nnc1-c1cccc(N2Cc3c(cc(N4[C@H](C)CC[C@H]4C)nc3CNC)C2=O)n1` [Example 111, 6-[(2R,5R)-2,5-dimethylpyrrolidin-1-yl]-2-[6-(4-ethyl-5-methyl-4H-1,2,4-triazol-3-yl)pyridin-2-yl]-4-[(methylamino)methyl]-2,3-dihydro-1H-pyrrolo[3,4-c]pyridin-1-one], the Ki in assay [1] was 1.01 nM. The IC50 in assay [2] turned out to be 147 nM.

Consider `CNCc1nc(N2C[C@@H](C)O[C@@H](C)C2)cc2c1CN(c1cccc(-c3nncn3C(C)C)n1)C2=O` [Example 112, 6-[2,6-dimethylmorpholin-4-yl]-4-[(methylamino)methyl]-2-{6-[4-(propan-2-yl)-4H-1,2,4-triazol-3-yl]pyridin-2-yl}-2,3-dihydro-1H-pyrrolo[3,4-c]pyridin-1-one], for which, in assay [1], the Ki came out at 1.49 nM. In addition, in assay [2], the IC50 worked out at 431 nM.

`CCCn1cnnc1-c1cccc(N2Cc3c(cc(N4CCC[C@H]4C(F)(F)F)nc3CNC)C2=O)n1` [Example 113, 4-[(methylamino)methyl]-2-[6-(4-propyl-4H-1,2,4-triazol-3-yl)pyridin-2-yl]-6-[(2S)-2-(trifluoromethyl)pyrrolidin-1-yl]-2,3-dihydro-1H-pyrrolo[3,4-c]pyridin-1-one]: in assay [1], the Ki amounted to 0.22 nM. Moreover, in assay [2], the IC50 is 83 nM.

For `CCn1cnnc1-c1cccc(N2Cc3c(cc(N4CCC[C@@H]4C)nc3CNC)C2=O)n1` [Example 114, 2-[6-(4-ethyl-4H-1,2,4-triazol-3-yl)pyridin-2-yl]-4-[(methylamino)methyl]-6-[(2S)-2-methylpyrrolidin-1-yl]-2,3-dihydro-1H-pyrrolo[3,4-c]pyridin-1-one], the Ki in assay [1] turned out to be 0.12 nM. In addition, the IC50 in assay [2] was found to be 37 nM.

Take `CCn1cnnc1-c1cccc(N2Cc3c(cc(N4CCC[C@H]4C)nc3CNC)C2=O)n1` [Example 115, 2-[6-(4-ethyl-4H-1,2,4-triazol-3-yl)pyridin-2-yl]-4-[(methylamino)methyl]-6-[(2R)-2-methylpyrrolidin-1-yl]-2,3-dihydro-1H-pyrrolo[3,4-c]pyridin-1-one]: in assay [1], the Ki was less than 0.09 nM. Further, in assay [2], the IC50 was determined as 21 nM.

Turning to `CNCc1nc(N2[C@H](C)CC[C@H]2C)cc2c1CN(c1cccc(-c3nnc(C)n3C(C)C)n1)C2=O` [Example 116, 6-[(2R,5R)-2,5-dimethylpyrrolidin-1-yl]-4-[(methylamino)methyl]-2-{6-[5-methyl-4-(propan-2-yl)-4H-1,2,4-triazol-3-yl]pyridin-2-yl}-2,3-dihydro-1H-pyrrolo[3,4-c]pyridin-1-one], the Ki in assay [1] came out at 1.04 nM. The IC50 in assay [2] turned out to be 381 nM.

Consider `CCC(CC)n1cnnc1-c1cccc(N2Cc3c(cc(N(C)C)nc3CN)C2=O)n1` [Example 117, 4-(aminomethyl)-6-(dimethylamino)-2-{6-[4-(pentan-3-yl)-4H-1,2,4-triazol-3-yl]pyridin-2-yl}-2,3-dihydro-1H-pyrrolo[3,4-c]pyridin-1-one], for which the Ki in assay [1] was 0.46 nM. Further, the IC50 in assay [2] was 89 nM.

Regarding `CNCc1nc(N2[C@H](C)CC[C@H]2C)cc2c1CN(c1cccc(N3C(=O)OC[C@@H]3CF)n1)C2=O` [Example 118, 6-[(2R,5R)-2,5-dimethylpyrrolidin-1-yl]-2-{6-[(4R)-4-(fluoromethyl)-2-oxo-1,3-oxazolidin-3-yl]pyridin-2-yl}-4-[(methylamino)methyl]-2,3-dihydro-1H-pyrrolo[3,4-c]pyridin-1-one], the Ki in assay [1] worked out at 0.89 nM. For the same compound, the IC50 in assay [2] was found to be 149 nM.

On to `CCC(CC)n1cnnc1-c1cccc(N2Cc3c(cc(N4[C@H](C)CC[C@H]4C)nc3CN)C2=O)n1` [Example 119, 4-(aminomethyl)-6-[(2R,5R)-2,5-dimethylpyrrolidin-1-yl]-2-{6-[4-(pentan-3-yl)-4H-1,2,4-triazol-3-yl]pyridin-2-yl}-2,3-dihydro-1H-pyrrolo[3,4-c]pyridin-1-one], for which the Ki in assay [1] turned out to be 0.52 nM. Besides, the IC50 in assay [2] came to 104 nM.

For `CCCn1cnnc1-c1cccc(N2Cc3c(cc(N4CCC[C@@H]4C(F)(F)F)nc3CNC)C2=O)n1` [Example 120, 4-[(methylamino)methyl]-2-[6-(4-propyl-4H-1,2,4-triazol-3-yl)pyridin-2-yl]-6-[(2R)-2-(trifluoromethyl)pyrrolidin-1-yl]-2,3-dihydro-1H-pyrrolo[3,4-c]pyridin-1-one], the Ki in assay [1] was less than 0.09 nM. For the same compound, the IC50 in assay [2] amounted to 56 nM.

With `CCC(CC)n1cnnc1-c1cccc(N2Cc3c(cc(N(CC)CC)nc3CN)C2=O)n1` [Example 122, 4-(aminomethyl)-6-(diethylamino)-2-{6-[4-(pentan-3-yl)-4H-1,2,4-triazol-3-yl]pyridin-2-yl}-2,3-dihydro-1H-pyrrolo[3,4-c]pyridin-1-one], in assay [1], the Ki came out at 0.41 nM. Further, in assay [2], the IC50 amounted to 70 nM.

Consider `CCN(c1cc2c(c(CN)n1)CN(c1cccc(N3C(=O)OC[C@@H]3CF)n1)C2=O)C(C)C` [Example 123, 4-(aminomethyl)-6-[ethyl(propan-2-yl)amino]-2-{6-[(4R)-4-(fluoromethyl)-2-oxo-1,3-oxazolidin-3-yl]pyridin-2-yl}-2,3-dihydro-1H-pyrrolo[3,4-c]pyridin-1-one], for which the Ki in assay [1] is 1.03 nM. For the same compound, in assay [2], the IC50 is 273 nM.

For the compound `C[C@@H]1CC[C@@H](C)N1c1cc2c(c(CN)n1)CN(c1cccc(N3C(=O)OC[C@@H]3CF)n1)C2=O` [Example 124, 4-(aminomethyl)-6-[(2R,5R)-2,5-dimethylpyrrolidin-1-yl]-2-{6-[(4R)-4-(fluoromethyl)-2-oxo-1,3-oxazolidin-3-yl]pyridin-2-yl}-2,3-dihydro-1H-pyrrolo[3,4-c]pyridin-1-one], the Ki in assay [1] is 1.5 nM. In addition, the IC50 in assay [2] was determined as 375 nM.

In the case of `C[C@@H]1CCCN1c1cc2c(c(CN)n1)CN(c1cccc(N3C(=O)OC[C@@H]3C)n1)C2=O` [Example 125, 4-(aminomethyl)-2-{6-[(4S)-4-methyl-2-oxo-1,3-oxazolidin-3-yl]pyridin-2-yl}-6-[(2R)-2-methylpyrrolidin-1-yl]-2,3-dihydro-1H-pyrrolo[3,4-c]pyridin-1-one], the Ki in assay [1] is 0.1 nM. In assay [2], the IC50 stood at 50 nM.

As for `CCC(CC)n1cnnc1-c1cccc(N2Cc3c(cc(C4(C)CC4)nc3CN)C2=O)n1` [Example 126, 4-(aminomethyl)-6-(1-methylcyclopropyl)-2-{6-[4-(pentan-3-yl)-4H-1,2,4-triazol-3-yl]pyridin-2-yl}-2,3-dihydro-1H-pyrrolo[3,4-c]pyridin-1-one], the Ki in assay [1] is 0.8 nM. The IC50 in assay [2] worked out at 114 nM.

Turning to `CCn1c(C)nnc1-c1cccc(N2Cc3c(cc(C4(C)CC4)nc3CN)C2=O)n1` [Example 127, 4-(aminomethyl)-2-[6-(4-ethyl-5-methyl-4H-1,2,4-triazol-3-yl)pyridin-2-yl]-6-(1-methylcyclopropyl)-2,3-dihydro-1H-pyrrolo[3,4-c]pyridin-1-one], in assay [1], the Ki was 1.52 nM. For the same compound, the IC50 in assay [2] was determined as 435 nM.

With `CCCn1c(C)nnc1-c1cccc(N2Cc3c(cc(C4(C)CC4)nc3CN)C2=O)n1` [Example 128, 4-(aminomethyl)-6-(1-methylcyclopropyl)-2-[6-(5-methyl-4-propyl-4H-1,2,4-triazol-3-yl)pyridin-2-yl]-2,3-dihydro-1H-pyrrolo[3,4-c]pyridin-1-one], the Ki in assay [1] was 0.63 nM. Further, the IC50 in assay [2] was found to be 874 nM.

As for `CCC(CC)n1cnnc1-c1cccc(N2Cc3c(cc(C4CC4)nc3CN)C2=O)n1` [Example 129, 4-(aminomethyl)-6-cyclopropyl-2-{6-[4-(pentan-3-yl)-4H-1,2,4-triazol-3-yl]pyridin-2-yl}-2,3-dihydro-1H-pyrrolo[3,4-c]pyridin-1-one], in assay [1], the Ki amounted to 0.31 nM. The IC50 in assay [2] was found to be 93 nM.

For the compound `CCCn1c(C)nnc1-c1cccc(N2Cc3c(cc(N(C)CC)nc3CNC)C2=O)n1` [Example 130, 6-[ethyl(methyl)amino]-4-[(methylamino)methyl]-2-[6-(5-methyl-4-propyl-4H-1,2,4-triazol-3-yl)pyridin-2-yl]-2,3-dihydro-1H-pyrrolo[3,4-c]pyridin-1-one], the Ki in assay [1] turned out to be 0.78 nM. The IC50 in assay [2] was found to be 201 nM.

Turning to `CCN(C)c1cc2c(c(CNC)n1)CN(c1cccc(-c3nncn3CC)n1)C2=O` [Example 131, 6-[ethyl(methyl)amino]-2-[6-(4-ethyl-4H-1,2,4-triazol-3-yl)pyridin-2-yl]-4-[(methylamino)methyl]-2,3-dihydro-1H-pyrrolo[3,4-c]pyridin-1-one], in assay [1], the Ki was determined as 0.11 nM. Moreover, the IC50 in assay [2] came to 57 nM.
